Measured values as given in patent US8642593B2, “2,4-pyrimidinediamine compounds and prodrugs and their uses” (Rigel Pharmaceuticals, Inc., priority 2009, dated 2014).
Where two headings read alike, the source gives them in different places.

Tests used:
[1] = test system: mast cell activation induced by FcγR cross-linking (CHMC cells); assay: LD Tryptase CHMC: tryptase release assay; format: cell-based, Human; details: for IC50: Mast cell; for potency compared with the control, whole cell assay: vs control compound
Method: Compounds are assayed for inhibition of mast cell activation induced by FcγR cross-linking by measuring the activity of tryptase released upon degranulation as follows:
Human mast cells are cultured and differentiated from CD38-negative progenitor cell as described in U.S. Patent Publication No. 2005/0234049, which is hereby incorporated herein by reference in its entirety. For example, 65 μL of various concentrations of the test compound are prepared in MT (137 mM NaCl, 2.7 mM KCl, 1.8 mM CaCl2, 1.0 mM MgCl2, 5.6 mM Glucose, 20 mM Hepes (pH 7.4), 0.1% Bovine Serum Albumin, (Sigma, #A4503)) containing 2% MeOH and 1% DMSO, or control buffer are added to duplicate 96-well V-bottom plates. Pelleted and re-suspended (in warm MT) CHMC cells (65 μL) are added to each 96-well plate, mixed and incubated for 1 hour at 37° C. […] MT (25 μL) is added to control wells. After a 60-minute incubation at 37° C., cells and cell debris were pelleted by centrifugation at 1000 rpm for 10 min and tryptase and leukotriene C4 levels are measured.
To measure tryptase levels, 25 μL of supernatant from each well is transferred to a fresh 96-well black bottom plate, to which 100 μL of fresh tryptase substrate solution [(Z-Ala-Lys-Arg-AMC2TFA; Enzyme Systems Products, #AMC-246)]1:2000 in tryptase assay buffer [0.1M Hepes (pH 7.5), 10% w/v Glycerol, 10 μM Heparin (Sigma H-4898) 0.01% NaN3] is added. After 30 minutes incubation at room temperature, the optical density of the plates is measured at 355 nm/460 nm on a spectrophotometric plate reader.
Compounds of the disclosure were assayed for their ability to inhibit mast cell activation induced by FcγR cross-linking by measuring the activity of tryptase released upon degranulation.

KDR/VEGFR2 enzyme = target: T1, KDR/VEGFR2 enzyme (Homo sapiens, UniProt P35968); assay: Biochemical VEGFR Assay (ELISA); details: Table 2, unit inferred; read-out: Biochem VEGFR2
T1 construct: purchased Millipore #14-630
T1 sequence (P35968 790-1356 limits assumed): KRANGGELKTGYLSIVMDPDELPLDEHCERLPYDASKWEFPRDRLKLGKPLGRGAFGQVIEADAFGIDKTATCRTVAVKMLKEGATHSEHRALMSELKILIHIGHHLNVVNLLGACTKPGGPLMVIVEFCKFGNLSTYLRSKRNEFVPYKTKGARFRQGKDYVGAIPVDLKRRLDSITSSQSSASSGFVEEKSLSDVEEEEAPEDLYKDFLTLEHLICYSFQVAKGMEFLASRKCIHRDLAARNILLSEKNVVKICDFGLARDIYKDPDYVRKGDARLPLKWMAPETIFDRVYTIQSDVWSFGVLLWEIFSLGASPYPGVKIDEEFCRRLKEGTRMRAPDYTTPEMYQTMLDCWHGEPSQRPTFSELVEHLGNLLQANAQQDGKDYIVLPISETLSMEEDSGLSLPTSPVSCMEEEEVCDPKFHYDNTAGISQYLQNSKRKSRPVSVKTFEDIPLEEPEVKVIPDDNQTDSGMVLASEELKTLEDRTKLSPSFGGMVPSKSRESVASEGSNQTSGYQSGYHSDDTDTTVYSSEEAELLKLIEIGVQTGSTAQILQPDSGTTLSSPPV
Method: Compounds are tested for the ability to inhibit VEGF2 in an ELISA assay. […] Plates are then washed with 1×PBST using a plate washer, then blocked with 2% BSA in 1×PBST (100 μL/well) for 1 hr at room temperature. The NeutrAvidin-coated plates are again washed with 1×PBST using a plate washer.
The mixed test compound/reaction solutions are added to the wells of the NeutrAvidin-coated plates (50 μL/well). 6× enzyme solution (1000 parts kinase buffer, 0.6 parts KDR/VEGFR2 enzyme (50 μg/mL, Millipore, #14-630) is added to all wells except those designated as negative controls. The plates are incubated for 30 minutes on a shaker at room temperature.
The detection reagent is added at 100 μL/well, and the plates are incubated for 60 minutes at room temperature, then washed with 1×PBST using a plate washer.

Ret kinase = target: T2, Ret kinase (Homo sapiens, UniProt P07949); assay: Biochemical Ret Assay (ELISA-based); details: for IC50: Table 2, unit inferred, read-out: Biochem Ret; for selectivity over Ret kinase compared with the control: vs control compound
T2 construct: purchased Millipore #14-570
T2 sequence (P07949 658-1114 limits assumed): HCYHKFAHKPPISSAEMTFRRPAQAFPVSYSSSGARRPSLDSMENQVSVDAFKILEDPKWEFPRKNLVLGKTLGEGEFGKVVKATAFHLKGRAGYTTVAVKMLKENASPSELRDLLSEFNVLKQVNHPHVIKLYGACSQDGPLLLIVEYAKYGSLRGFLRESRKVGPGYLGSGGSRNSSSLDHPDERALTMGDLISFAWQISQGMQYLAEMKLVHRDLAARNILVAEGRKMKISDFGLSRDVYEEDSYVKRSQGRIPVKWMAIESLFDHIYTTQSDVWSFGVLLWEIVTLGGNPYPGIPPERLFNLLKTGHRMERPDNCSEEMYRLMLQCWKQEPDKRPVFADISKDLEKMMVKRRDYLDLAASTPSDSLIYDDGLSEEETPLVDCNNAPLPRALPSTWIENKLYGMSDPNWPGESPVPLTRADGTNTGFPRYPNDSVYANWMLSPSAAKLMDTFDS
Method: Compounds are tested for the ability to inhibit Ret kinase in an ELISA-based assay. The assay is carried out in a Costar white 96 well plate (Fisher Scientific, #07-200-591) coated overnight with 0.01 mg/mL NeutrAvidin (Pierce, 100 μL/well) at 4° C. The pre-coated 96 well plate is blocked with 2% BSA in PBST buffer for at least 1 h at room temperature before starting the assay. Serially diluted test compound stock solution is prepared separately in DMSO solution starting from 300 μM, and 2 μL/well of this diluted compound (3% DMSO final concentration) is added directly to the NeutrAvidin coated assay plate containing 55.5 μL/well of kinase reaction buffer (20 mM HEPES, pH 7.4, 5 mM MgCl2, 1 mM DTT, 0.01% Brij-35) pre-mixed with ATP and kinase substrate (TK2 peptide). Reaction is initiated by adding 2.5 μL/well Ret kinase (Millipore, #14-570) resulting in a final reaction volume of […]. The reaction is allowed to continue for 30 minutes at room temperature. […] After completing the reaction, the wells are washed three times with PBST and incubated for 1 h at room temperature with 100 μL/well of phosphopeptide detection antibody solution (mixture of 1:10000 diluted mouse anti-pTyr monoclonal antibody (Cell Signal Technology, #9411) and 1:10000 diluted goat HRP-conjugated anti-mouse IgG (Jackson Immunoresearch, #115-035-003)). The plate is washed three times with PBST, developed with supersignal ELISA pico chemiluminescent substrate (Pierce), and read on a SpectraMax M5 microplate reader (Molecular Devices).

[2] = Homo sapiens, Table 2, unit inferred, read-out: LD Tryptase CHMC
[3] = Homo sapiens, read-out: IC50 value (tryptase assay)
[4] = human mast cells, anti-IgG stimulation, read-out: IC50 (LD Tryptase CHMC)

Compound | IC50 [1, 2] [nM] | IC50 [1, 3] [nM] | IC50 [1, 4] [nM] | potency compared with the control, whole cell assay [1] | IC50 (KDR/VEGFR2 enzyme) [nM] | IC50 (Ret kinase) [nM] | selectivity over Ret kinase compared with the control (Ret kinase)
CC1(C)Oc2ccc(Nc3nc(Nc4ccc(N5CCOCC5)cc4)ncc3F)nc2NC1=O [Compound 3, N4-(2,2-Dimethyl-3-oxo-4H-5-pyrido[1,4]oxazin-6-yl)-5-fluoro-N2-(4-morpholinophenyl)-2,4-pyrimidinediamine] | 80 | < 100 | 80 | somewhat less potent than the control | 340 | 6 | significantly more selective
CC1(C)Oc2ccc(Nc3nc(Nc4ccc(N5CCOCC5)nc4)ncc3F)nc2NC1=O [Compound 1, N4-(2,2-Dimethyl-3-oxo-4H-5-pyrido[1,4]oxazin-6-yl)-5-fluoro-N2-[6-morpholinopyridin-3-yl]-2,4-pyrimidinediamine] | 90 | < 100 | 90 | somewhat less potent than the control | 770 | 48 | significantly more selective
